Patent US20230094952A1, “Method for Culturing Hematopoietic Stem Cells” (Sumitomo Pharma Co., Ltd., priority 2019, published 2023)

Columns and labels:
[1] = test system: mouse long-term hematopoietic stem cells; test: Reproducibility and concentration dependence test: 1-week culture of sorted Hoxb5-tri-mCherry mouse long-term hematopoietic stem cells, flow cytometry; assay type: cell-based; details: day 7 of culture, n=2
Procedure, shortened: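 Hoxb5-tri-mCherry+ LT-HSCs (Lin−c-Kit+Sca-1+Flk2−CD34−/lo CD150+) were sorted from mouse bone marrow at 10 cells/well into StemSpan SFEM with SCF and TPO. Cells were cultured with compound for 1 week at 37°C, 5% CO2. Flow cytometry then measured KLS and mCherry+ fractions and cell counts.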

[2] = test system: human CD34-positive cells transplanted into NOG mouse; test: In vivo engraftment test with human cells in irradiated NOG mouse (peripheral blood donor chimerism); details: 10000 cells transplanted
Procedure: (§1) Each of artemether and the compound of Example 1-23 was prepared with the cell culture medium at a final concentration of 0.003 μM or 0.01 μM, and added to the above human cells seeded after classification (166 cells were seeded per well) to a final volume of 200 μL/well to act thereon. Thereafter, for each condition, 10000 cells in total of a CD34-positive fraction were cultured in a CO2 incubator under conditions of 37° C. and 5% CO2 for 1 week, and the cell count was determined. Among the cells after culture, 10000 cells, a number equal to the number of cells before culture, were transplanted into an immunocompromised NOG mouse exposed to a lethal dose of radiation. As a comparative sample, 10000 fresh cord blood-derived CD34-positive cells (uncultured) were transplanted. For peripheral blood donor chimerism at each specified time after transplantation, the human CD45-positive cell count and the mouse CD45-positive cell count were determined by using a human-specific CD45 antibody and a mouse-specific CD45 antibody, and the peripheral blood donor chimerism was represented as the proportion of human CD45-positive cells to the total of human CD45-positive cells and mouse CD45-positive cells (chimerism rate).

[3] = test system: human CD34-positive fraction; test: Ex vivo culture of 10000 human CD34-positive cells before transplantation (cell count); assay type: cell-based; details: 10000 CD34-positive cells cultured 1 week
Procedure: as §1

Row | SMILES | KLS-positive rate ([1]; Table 4, compound 0.1 μM) | Viable cell count ([1]; Table 4, compound 0.1 μM) | mCherry-positive rate ([1]; Table 4, compound 0.1 μM) | KLS-positive rate ([1]; Table 4, compound 0.3 μM) | Viable cell count ([1]; Table 4, compound 0.3 μM) | mCherry-positive rate ([1]; Table 4, compound 0.3 μM) | KLS-positive rate ([1]; Table 4, compound 1 μM) | Viable cell count ([1]; Table 4, compound 1 μM) | mCherry-positive rate ([1]; Table 4, compound 1 μM) | KLS-positive rate ([1]; Table 4, compound 3 μM) | Viable cell count ([1]; Table 4, compound 3 μM) | mCherry-positive rate ([1]; Table 4, compound 3 μM) | KLS-positive rate ([1]; Table 4, compound 10 μM) | Viable cell count ([1]; Table 4, compound 10 μM) | mCherry-positive rate ([1]; Table 4, compound 10 μM) | other results
1 | C[C@H]1[C@H](C(N)=O)O[C@@H]2O[C@@]3(C)CC[C@H]4[C@H](C)CC[C@@H]1[C@@]24OO3 [Example 1-16, (3R,5aS,6R,8aS,9R,10R,12R,12aR)-3,6,9-Trimethyldecahydro-12H-3,12-epoxypyrano[4,3-j][1,2]benzodioxepine-10-carboxamide] | 13.3% | 504.5 cell | 6.8% | 11.6% | 388.5 cell | 29.2% | 33.4% | 310.0 cell | 68.2% | 9.2% | 182.5 cell | 92.4% | 52.6% | 29.0 cell | 99.0% | 
2 | C[C@H]1[C@H](c2ccco2)O[C@@H]2O[C@@]3(C)CC[C@H]4[C@H](C)CC[C@@H]1[C@@]24OO3 [Example 1-7, (3R,5aS,6R,8aS,9R,10R,12R,12aR)-10-(Furan-2-yl)-3,6,9-trimethyldecahydro-12H-3,12-epoxypyrano[4,3-j][1,2]benzodioxepine] | 26.9% | 225.0 cell | 42.9% | 19.6% | 269.0 cell | 62.2% | 36.1% | 73.0 cell | 96.7% | 0.0% | 0.0 cell | 0.0% | 0.0% | 0.0 cell | 0.0% | 
3 | CO[C@H]1O[C@@H]2O[C@@]3(C)CC[C@H]4[C@H](C)CC[C@@H]([C@H]1C)[C@@]24OO3 [Example 1-30, artemether, reference compound] | 35.3% | 238.0 cell | 71.2% | 38.4% | 184.0 cell | 100.0% | 40.1% | 135.5 cell | 99.0% | 57.4% | 44.5 cell | 100.0% | 71.4% | 65.0 cell | 98.2% | KLS-positive rate ([1]; Table 3, compound 0.1 μM): 50.25%; Viable cell count ([1]; Table 3, compound 0.1 μM): 1109 cell; mCherry-positive rate ([1]; Table 3, compound 0.1 μM): 67.2%; KLS-positive rate ([1]; Table 3, compound 0.3 μM): 22.05%; Viable cell count ([1]; Table 3, compound 0.3 μM): 2632 cell; mCherry-positive rate ([1]; Table 3, compound 0.3 μM): 36.85%; KLS-positive rate ([1]; Table 3, compound 1 μM): 21.4%; Viable cell count ([1]; Table 3, compound 1 μM): 1170.5 cell; mCherry-positive rate ([1]; Table 3, compound 1 μM): 57.85%; KLS-positive rate ([1]; Table 3, compound 3 μM): 50.3%; Viable cell count ([1]; Table 3, compound 3 μM): 115 cell; mCherry-positive rate ([1]; Table 3, compound 3 μM): 98.05%; KLS-positive rate ([1]; Table 3, compound 10 μM): 65.9%; Viable cell count ([1]; Table 3, compound 10 μM): 108.5 cell; mCherry-positive rate ([1]; Table 3, compound 10 μM): 94.45%; Donor chimerism ([2]; cells cultured with compound 0.003 μM, 1 month after transplantation): 0.041 ± 0.022%; Donor chimerism ([2]; cells cultured with compound 0.003 μM, 2 months after transplantation): 0.605 ± 0.95%; Donor chimerism ([2]; cells cultured with compound 0.003 μM, 3 months after transplantation): 2.108 ± 2.479%; Viable cell count ([3]; compound 0.003 μM): 95954 cell
4 | COCCO[C@H]1O[C@@H]2O[C@@]3(C)CC[C@H]4[C@H](C)CC[C@@H]([C@H]1C)[C@@]24OO3 [Example 1-23, (3R,5aS,6R,8aS,9R,10S,12R,12aR)-10-(2-methoxyethoxy)-3,6,9-trimethyldecahydro-12H-3,12-epoxypyrano[4,3-j][1,2]benzodioxepine] | 12.4% | 712.5 cell | 17.9% | 15.4% | 509.0 cell | 46.5% | 5.3% | 729.0 cell | 72.7% | 23.2% | 252.0 cell | 97.3% | 42.3% | 63.5 cell | 100.0% | Donor chimerism ([2]; cells cultured with compound 0.01 μM, 1 month after transplantation): 0.299 ± 0.049%; Donor chimerism ([2]; cells cultured with compound 0.01 μM, 2 months after transplantation): 0.748 ± 0.585%; Viable cell count ([3]; compound 0.01 μM): 20071 cell
